Results taken from PMC5933782, “Molecular structures of cdc2-like kinases in complex with a new inhibitor chemotype” (PLoS ONE, 2018).
Where a name gives a salt, the structure may show the parent alone.

Columns and labels:
CDK1/cyclin B = assay: radiometric protein kinase assay; format: biochemical, starfish; settings: for IC50: 15 μmol/L ATP; for Residual enzyme activity CDK1/cyclin B: 10 µM concentration, ± SEM
CDK2/cyclin A = target: T1, CDK2/cyclin A (Homo sapiens, UniProt P24941); assay: radiometric protein kinase assay; format: biochemical; settings: for IC50: 15 μmol/L ATP, read-out: IC50 CDK2/cyclinA; for Residual enzyme activity CDK2/cyclin A: 10 µM concentration, ± SEM
T1 construct: made in house

CDK5/p25 = target: T2, CDK5/p25 (Homo sapiens, UniProt Q00535); assay: radiometric protein kinase assay; format: biochemical; settings: for IC50: 15 μmol/L ATP; for Residual enzyme activity CDK5/p25: 10 µM concentration, ± SEM
T2 construct: made in house

CK1δ/ε = assay: radiometric protein kinase assay; format: biochemical, porcine; settings: for IC50: 15 μmol/L ATP, read-out: IC50 CK1; for Residual enzyme activity CK1: 10 µM concentration, ± SEM
DYRK1A = DYRK1A (Homo sapiens, UniProt Q13627); assay: radiometric protein kinase assay; format: biochemical; settings: for IC50: 15 μmol/L ATP, read-out: IC50 DYRK 1A; for Residual enzyme activity DYRK 1A: 10 µM concentration, ± SEM
DYRK1B = DYRK1B (Homo sapiens, UniProt Q9Y463); assay: radiometric protein kinase assay; format: biochemical; settings: for IC50: 15 μmol/L ATP, read-out: IC50 DYRK 1B; for Residual enzyme activity DYRK 1B: 10 µM concentration, ± SEM
DYRK2 = target: T3, DYRK2 (Homo sapiens, UniProt Q92630); assay: radiometric protein kinase assay; format: biochemical; settings: for IC50: 15 μmol/L ATP, read-out: IC50 DYRK 2; for Residual enzyme activity DYRK 2: 10 µM concentration, ± SEM
T3 sequence (Q92630 1-601): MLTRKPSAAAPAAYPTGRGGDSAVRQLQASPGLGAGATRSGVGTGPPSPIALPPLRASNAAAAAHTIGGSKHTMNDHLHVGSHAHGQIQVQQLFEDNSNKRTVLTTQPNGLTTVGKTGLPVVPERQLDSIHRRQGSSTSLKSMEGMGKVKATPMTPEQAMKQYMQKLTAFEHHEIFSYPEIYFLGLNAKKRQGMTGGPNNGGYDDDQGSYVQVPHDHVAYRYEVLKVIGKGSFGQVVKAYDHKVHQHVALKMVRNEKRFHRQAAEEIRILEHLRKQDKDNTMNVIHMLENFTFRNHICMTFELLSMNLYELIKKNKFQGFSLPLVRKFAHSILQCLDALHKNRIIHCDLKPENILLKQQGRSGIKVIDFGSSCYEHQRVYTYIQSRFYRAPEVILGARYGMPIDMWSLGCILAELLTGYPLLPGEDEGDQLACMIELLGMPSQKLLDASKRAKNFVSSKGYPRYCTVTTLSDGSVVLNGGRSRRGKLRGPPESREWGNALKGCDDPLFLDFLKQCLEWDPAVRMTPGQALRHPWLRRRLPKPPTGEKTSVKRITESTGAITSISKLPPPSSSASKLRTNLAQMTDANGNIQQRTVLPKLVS

DYRK3 = target: T4, DYRK3 (Homo sapiens, UniProt O43781); assay: radiometric protein kinase assay; format: biochemical; settings: for IC50: 15 μmol/L ATP, read-out: IC50 DYRK 3; for Residual enzyme activity DYRK 3: 10 µM concentration, ± SEM
T4 sequence (O43781 1-588): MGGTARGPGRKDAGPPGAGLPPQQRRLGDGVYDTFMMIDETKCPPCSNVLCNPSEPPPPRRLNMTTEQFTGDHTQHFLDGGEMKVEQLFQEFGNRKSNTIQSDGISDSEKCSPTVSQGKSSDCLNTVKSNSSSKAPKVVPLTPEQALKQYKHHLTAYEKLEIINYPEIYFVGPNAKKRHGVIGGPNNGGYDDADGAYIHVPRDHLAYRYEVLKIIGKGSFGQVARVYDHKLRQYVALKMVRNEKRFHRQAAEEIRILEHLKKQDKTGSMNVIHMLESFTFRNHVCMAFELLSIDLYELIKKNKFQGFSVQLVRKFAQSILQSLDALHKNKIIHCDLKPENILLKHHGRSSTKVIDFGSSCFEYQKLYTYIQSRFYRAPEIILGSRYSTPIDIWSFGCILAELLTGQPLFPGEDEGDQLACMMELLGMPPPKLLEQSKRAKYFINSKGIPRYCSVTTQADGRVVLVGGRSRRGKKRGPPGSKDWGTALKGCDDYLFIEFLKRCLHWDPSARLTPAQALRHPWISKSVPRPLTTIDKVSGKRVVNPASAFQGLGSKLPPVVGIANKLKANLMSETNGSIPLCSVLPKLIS

GSK-3 = assay: radiometric protein kinase assay; format: biochemical, porcine; settings: for IC50: 15 μmol/L ATP, read-out: IC50 GSK3; for Residual enzyme activity GSK3: 10 µM concentration, ± SEM
CDK9/cyclin T = CDK9/cyclin T (Homo sapiens, UniProt P50750); assay: radiometric protein kinase assay; settings: for Residual enzyme activity CDK9/cyclin T: 10 µM concentration, ± SEM
Procedure: (§1) Buffers. Buffer A: 10 mM MgCl2, 1 mM EGTA, 1 mM DTT, 25 mM Tris-HCl pH 7.5, 50 μg heparin/mL. Buffer C: 60 mM β-glycerophosphate, 15 mM p-nitrophenylphosphate, 25 mM MOPS (pH 7.2), 15 mM EGTA, 15 mM MgCl2, 1 mM DTT, 1 mM sodium vanadate, 1 mM phenylphosphate.
(§2) Kinase activities were assayed in buffer A or C at 30°C at a final ATP concentration of 15 μmol/L. Blank values were subtracted and activities were expressed in percent of the maximal activity, i.e. in the absence of inhibitors. Controls were performed with appropriate dilutions of DMSO.
(§3) Their kinase activity was assayed in buffer A, with 1 mg histone H1/mL, in the presence of 15 μmol/L [γ-33P] ATP (3,000 Ci/mmol; 10 mCi/mL) in a final volume of 30 μL. After 30 min incubation at 30°C, the reaction was stopped by harvesting onto P81 phosphocellulose supernatant (Whatman) using a FilterMate harvester (Packard) and washing in 1% phosphoric acid. Scintillation fluid was added and the radioactivity measured in a Packard counter.
(§4) All data points for construction of dose response curves were recorded in triplicate.

CLK1 = CLK1 (Mus musculus, UniProt P22518); assay: radiometric protein kinase assay; settings: for Residual enzyme activity CLK 1: 10 µM concentration, ± SEM
Procedure: Buffer A: 10 mM MgCl2, 1 mM EGTA, 1 mM DTT, 25 mM Tris-HCl pH 7.5, 50 μg heparin/mL. Buffer C: 60 mM β-glycerophosphate, 15 mM p-nitrophenylphosphate, 25 mM MOPS (pH 7.2), 15 mM EGTA, 15 mM MgCl2, 1 mM DTT, 1 mM sodium vanadate, 1 mM phenylphosphate.
Controls were performed with appropriate dilutions of DMSO. The GS-1, CKS, CDK7/9 tide and RS peptide substrates were obtained from Proteogenix (Oberhausbergen, France).
CDK1/cyclin B (M phase starfish oocytes, native), CDK2/cyclin A and CDK5/p25 (human, recombinant) were prepared as previously described [33]. […] ATP (3,000 Ci/mmol; 10 mCi/mL) in a final volume of 30 μL. After 30 min incubation at 30°C, the reaction was stopped by harvesting onto P81 phosphocellulose supernatant (Whatman) using a FilterMate harvester (Packard) and washing in 1% phosphoric acid. Scintillation fluid was added and the radioactivity measured in a Packard counter.
as §4

CLK2 = CLK2 (Mus musculus, UniProt O35491); assay: radiometric protein kinase assay; settings: for Residual enzyme activity CLK 2: 10 µM concentration, ± SEM
Procedure: as §1, §2, §3, §4

CLK3 = CLK3 (Mus musculus, UniProt O35492); assay: radiometric protein kinase assay; settings: for Residual enzyme activity CLK 3: 10 µM concentration, ± SEM
CLK4 = CLK4 (Mus musculus, UniProt O35493); assay: radiometric protein kinase assay; settings: for Residual enzyme activity CLK 4: 10 µM concentration, ± SEM
CLK4, sequence (O35493 whole entry): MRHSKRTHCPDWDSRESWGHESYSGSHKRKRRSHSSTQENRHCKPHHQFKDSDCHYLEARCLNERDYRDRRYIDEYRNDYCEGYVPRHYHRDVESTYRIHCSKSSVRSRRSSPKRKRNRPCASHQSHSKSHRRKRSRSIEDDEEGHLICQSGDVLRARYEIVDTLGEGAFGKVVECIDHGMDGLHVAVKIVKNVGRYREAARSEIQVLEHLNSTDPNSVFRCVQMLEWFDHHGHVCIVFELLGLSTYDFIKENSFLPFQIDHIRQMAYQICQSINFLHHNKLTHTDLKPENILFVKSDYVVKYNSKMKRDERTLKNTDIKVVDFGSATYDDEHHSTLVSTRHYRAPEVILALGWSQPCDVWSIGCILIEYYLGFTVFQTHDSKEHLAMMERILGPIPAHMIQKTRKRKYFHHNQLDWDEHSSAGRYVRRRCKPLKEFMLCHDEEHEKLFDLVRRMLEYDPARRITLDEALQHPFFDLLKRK

T2 sequence (Q00535 whole entry): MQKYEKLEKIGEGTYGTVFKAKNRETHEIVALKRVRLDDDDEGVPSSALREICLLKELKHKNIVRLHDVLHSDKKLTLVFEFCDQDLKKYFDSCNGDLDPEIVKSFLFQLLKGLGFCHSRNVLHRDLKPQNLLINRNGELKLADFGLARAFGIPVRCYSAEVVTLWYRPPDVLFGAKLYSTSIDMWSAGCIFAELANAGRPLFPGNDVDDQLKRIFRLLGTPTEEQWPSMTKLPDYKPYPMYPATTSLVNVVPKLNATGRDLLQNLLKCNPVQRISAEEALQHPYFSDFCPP
T2 sequence (Q15078 99-307 partner limits assumed): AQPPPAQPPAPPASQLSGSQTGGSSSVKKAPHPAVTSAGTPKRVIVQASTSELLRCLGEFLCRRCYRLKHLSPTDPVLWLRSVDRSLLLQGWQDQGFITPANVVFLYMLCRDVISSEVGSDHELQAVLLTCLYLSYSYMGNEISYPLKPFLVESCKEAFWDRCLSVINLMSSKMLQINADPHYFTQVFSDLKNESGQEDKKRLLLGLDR
CLK2, sequence (O35491 whole entry): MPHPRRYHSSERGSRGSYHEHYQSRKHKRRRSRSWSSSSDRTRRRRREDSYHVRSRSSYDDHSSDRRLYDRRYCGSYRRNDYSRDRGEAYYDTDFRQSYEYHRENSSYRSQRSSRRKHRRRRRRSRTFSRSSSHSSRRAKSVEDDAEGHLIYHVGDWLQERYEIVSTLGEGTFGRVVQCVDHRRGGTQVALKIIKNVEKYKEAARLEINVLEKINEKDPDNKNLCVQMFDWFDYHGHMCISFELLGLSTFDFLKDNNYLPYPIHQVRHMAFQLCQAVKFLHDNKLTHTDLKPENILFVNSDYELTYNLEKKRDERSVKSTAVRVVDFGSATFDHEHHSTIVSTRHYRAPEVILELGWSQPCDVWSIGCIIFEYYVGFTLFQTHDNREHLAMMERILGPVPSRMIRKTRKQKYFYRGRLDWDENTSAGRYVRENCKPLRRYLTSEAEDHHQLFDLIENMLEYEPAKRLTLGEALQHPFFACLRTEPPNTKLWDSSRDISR
CLK1, sequence (P22518 whole entry): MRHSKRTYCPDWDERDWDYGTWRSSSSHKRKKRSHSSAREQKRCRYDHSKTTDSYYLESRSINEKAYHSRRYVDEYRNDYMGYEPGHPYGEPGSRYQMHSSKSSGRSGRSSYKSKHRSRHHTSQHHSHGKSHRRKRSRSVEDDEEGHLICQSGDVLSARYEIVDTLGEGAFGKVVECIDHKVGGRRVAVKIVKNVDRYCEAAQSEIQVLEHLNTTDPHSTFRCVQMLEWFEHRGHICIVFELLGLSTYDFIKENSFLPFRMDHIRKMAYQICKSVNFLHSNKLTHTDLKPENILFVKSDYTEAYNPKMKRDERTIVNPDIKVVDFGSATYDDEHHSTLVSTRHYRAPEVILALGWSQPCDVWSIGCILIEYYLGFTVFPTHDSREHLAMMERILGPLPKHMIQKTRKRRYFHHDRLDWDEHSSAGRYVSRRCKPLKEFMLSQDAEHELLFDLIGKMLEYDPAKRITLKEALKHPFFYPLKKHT
CDK9/cyclin T, sequence (P50750 whole entry): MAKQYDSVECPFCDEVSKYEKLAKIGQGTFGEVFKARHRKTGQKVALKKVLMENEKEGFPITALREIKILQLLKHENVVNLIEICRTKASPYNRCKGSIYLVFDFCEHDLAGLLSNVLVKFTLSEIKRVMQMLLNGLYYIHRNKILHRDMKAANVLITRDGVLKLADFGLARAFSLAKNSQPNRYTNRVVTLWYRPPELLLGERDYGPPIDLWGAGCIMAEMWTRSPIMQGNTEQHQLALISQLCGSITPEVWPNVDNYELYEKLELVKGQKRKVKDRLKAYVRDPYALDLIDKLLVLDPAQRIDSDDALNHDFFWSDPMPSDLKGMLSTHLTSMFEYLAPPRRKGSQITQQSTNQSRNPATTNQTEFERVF
CDK9/cyclin T, sequence (O60563 whole entry partner): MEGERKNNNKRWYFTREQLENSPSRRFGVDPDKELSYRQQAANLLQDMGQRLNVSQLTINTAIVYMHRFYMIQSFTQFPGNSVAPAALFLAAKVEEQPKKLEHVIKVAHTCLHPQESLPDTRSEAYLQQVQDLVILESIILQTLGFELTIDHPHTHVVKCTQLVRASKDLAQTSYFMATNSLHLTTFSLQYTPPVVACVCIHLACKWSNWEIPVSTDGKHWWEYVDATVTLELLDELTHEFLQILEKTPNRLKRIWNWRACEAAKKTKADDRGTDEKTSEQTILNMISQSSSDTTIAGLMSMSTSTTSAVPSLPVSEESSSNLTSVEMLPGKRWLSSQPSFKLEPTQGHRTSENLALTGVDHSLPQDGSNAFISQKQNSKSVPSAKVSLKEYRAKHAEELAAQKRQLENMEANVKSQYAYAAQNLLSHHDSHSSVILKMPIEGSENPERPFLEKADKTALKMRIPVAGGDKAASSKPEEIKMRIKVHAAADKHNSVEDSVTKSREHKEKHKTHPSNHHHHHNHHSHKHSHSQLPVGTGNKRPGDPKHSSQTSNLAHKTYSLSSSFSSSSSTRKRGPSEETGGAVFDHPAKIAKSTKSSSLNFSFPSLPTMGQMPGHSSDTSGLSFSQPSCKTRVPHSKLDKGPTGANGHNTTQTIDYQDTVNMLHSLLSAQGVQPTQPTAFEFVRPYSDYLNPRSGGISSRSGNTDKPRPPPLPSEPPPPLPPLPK
CLK3, sequence (O35492 whole entry): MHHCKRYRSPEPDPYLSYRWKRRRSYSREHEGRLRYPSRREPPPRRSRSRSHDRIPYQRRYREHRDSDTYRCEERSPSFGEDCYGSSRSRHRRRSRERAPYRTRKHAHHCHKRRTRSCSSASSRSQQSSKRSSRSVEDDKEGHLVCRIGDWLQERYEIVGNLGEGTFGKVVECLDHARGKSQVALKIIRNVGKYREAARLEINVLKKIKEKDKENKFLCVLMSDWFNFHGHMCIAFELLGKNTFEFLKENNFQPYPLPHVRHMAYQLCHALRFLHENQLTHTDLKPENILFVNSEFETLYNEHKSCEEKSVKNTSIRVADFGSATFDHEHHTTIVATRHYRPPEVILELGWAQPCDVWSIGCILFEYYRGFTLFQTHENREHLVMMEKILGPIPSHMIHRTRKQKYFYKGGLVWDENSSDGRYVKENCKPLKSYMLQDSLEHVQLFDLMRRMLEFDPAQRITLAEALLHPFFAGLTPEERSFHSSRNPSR
DYRK1B, sequence (Q9Y463 whole entry): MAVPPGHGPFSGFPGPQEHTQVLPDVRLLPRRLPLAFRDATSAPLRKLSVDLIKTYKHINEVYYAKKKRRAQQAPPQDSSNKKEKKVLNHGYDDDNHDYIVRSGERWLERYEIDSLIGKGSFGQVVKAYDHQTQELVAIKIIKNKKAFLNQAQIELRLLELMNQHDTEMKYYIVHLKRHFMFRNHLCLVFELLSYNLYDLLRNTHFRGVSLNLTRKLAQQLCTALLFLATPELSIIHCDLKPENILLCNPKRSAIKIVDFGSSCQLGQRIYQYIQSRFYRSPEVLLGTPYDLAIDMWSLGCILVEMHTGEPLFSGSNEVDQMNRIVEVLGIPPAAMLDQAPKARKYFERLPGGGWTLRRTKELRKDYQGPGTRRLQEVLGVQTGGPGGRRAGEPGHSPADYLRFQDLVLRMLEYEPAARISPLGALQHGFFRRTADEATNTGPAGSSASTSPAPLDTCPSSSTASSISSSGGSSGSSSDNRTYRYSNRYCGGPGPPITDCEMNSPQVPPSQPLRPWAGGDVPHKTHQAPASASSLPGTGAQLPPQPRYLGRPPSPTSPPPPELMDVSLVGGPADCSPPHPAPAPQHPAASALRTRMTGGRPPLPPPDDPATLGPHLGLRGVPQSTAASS

| SMILES | melting point [°C] | Residual enzyme activity CDK1/cyclin B (CDK1/cyclin B) [%] | Residual enzyme activity CDK2/cyclin A (CDK2/cyclin A) [%] | Residual enzyme activity CDK5/p25 (CDK5/p25) [%] | Residual enzyme activity CK1 (CK1δ/ε) [%] | Residual enzyme activity DYRK 1A (DYRK1A) [%] | Residual enzyme activity DYRK 1B (DYRK1B) [%] | Residual enzyme activity DYRK 2 (DYRK2) [%] | Residual enzyme activity DYRK 3 (DYRK3) [%] | Residual enzyme activity GSK3 (GSK-3) [%] | Residual enzyme activity CDK9/cyclin T (CDK9/cyclin T) [%] | Residual enzyme activity CLK 1 (CLK1) [%] | Residual enzyme activity CLK 2 (CLK2) [%] | Residual enzyme activity CLK 3 (CLK3) [%] | Residual enzyme activity CLK 4 (CLK4) [%] | also measured |
| --- | --- | --- | --- | --- | --- | --- | --- | --- | --- | --- | --- | --- | --- | --- | --- | --- |
| O=C1NCc2ccc3c(-c4ccccc4)c[nH]c3c21 (as salt: sodium) [8a, 3-Phenyl-6,7-dihydropyrrolo[3,4-g]indol-8(1H)-one] | 294 to 295 | – | – | – | – | – | – | – | – | – | – | – | – | – | – | – |
| O=C1NCc2ccc3c(-c4ccc(Cl)cc4)c[nH]c3c21 (as salt: sodium) [8d, 3-(4-Chlorophenyl)-6,7-dihydropyrrolo[3,4-g]indol-8(1H)-one] | 255 to 257 | – | – | – | – | – | – | – | – | – | – | – | – | – | – | – |
| O=C1NCc2ccc3c(-c4ccc(Cl)c(Cl)c4)c[nH]c3c21 (as salt: sodium) [8e, 3-(3,4-Dichlorophenyl)-6,7-dihydropyrrolo[3,4-g]indol-8(1H)-one] | 258 to 259 | – | – | – | – | – | – | – | – | – | – | – | – | – | – | – |
| Cc1cccc(-c2c[nH]c3c4c(ccc23)CNC4=O)c1 (as salt: sodium) [8i, 3-(3-Methylphenyl)-6,7-dihydropyrrolo[3,4-g]indol-8(1H)-one] | 231 to 232 | – | – | – | – | – | – | – | – | – | – | – | – | – | – | – |
| Cc1[nH]c2c3c(ccc2c1-c1ccccc1)CNC3=O (as salt: sodium) [8k, 2-Methyl-3-phenyl-6,7-dihydropyrrolo[3,4-g]indol-8(1H)-one] | 245 to 247 | – | – | – | – | – | – | – | – | – | – | – | – | – | – | – |
| CN1Cc2ccc3c(-c4ccccc4)cn(C)c3c2C1=O [15e, 1,7-Dimethyl-3-phenyl-6,7-dihydropyrrolo[3,4-g]indol-8(1H)-one] | – | – | – | – | – | – | – | – | – | – | – | – | – | – | – | IC50 (CDK1/cyclin B): > 10 µM; IC50 (CDK2/cyclin A): > 10 µM; IC50 (CDK5/p25): > 10 µM; IC50 (CK1δ/ε): > 10 µM; IC50 (DYRK1A): > 10 µM; IC50 (DYRK1B): > 10 µM; IC50 (DYRK2): > 10 µM; IC50 (DYRK3): > 10 µM; IC50 (GSK-3): > 10 µM; IC50 (CDK9/cyclin T): > 10 µM; IC50 (CLK1): > 10 µM; IC50 (CLK2): > 10 µM; IC50 (CLK3): > 10 µM; IC50 (CLK4): > 10000 nM |
| O=C1NCc2c(-c3ccccc3)cc3c(-c4ccccc4)c[nH]c3c21 [17a, 3,5-Diphenyl-6,7-dihydropyrrolo[3,4-g]indol-8(1H)-one] | – | – | – | – | – | – | – | – | – | – | – | – | – | – | – | IC50 (CDK1/cyclin B): > 10 µM; IC50 (CDK2/cyclin A): > 10 µM; IC50 (CDK5/p25): > 10 µM; IC50 (CK1δ/ε): > 10 µM; IC50 (DYRK1A): > 10 µM; IC50 (DYRK1B): > 10 µM; IC50 (DYRK2): > 10 µM; IC50 (DYRK3): > 10 µM; IC50 (GSK-3): > 10 µM; IC50 (CDK9/cyclin T): > 10 µM; IC50 (CLK1): 8.8 µM; IC50 (CLK2): 7.2 µM; IC50 (CLK3): > 10 µM; IC50 (CLK4): 1300 nM |
| O=C1NCc2c(-c3cccc(F)c3)cc3c(-c4ccccc4)c[nH]c3c21 [17c, 5-(3-Fluorophenyl)-3-phenyl-6,7-dihydropyrrolo[3,4-g]indol-8(1H)-one] | – | – | – | – | – | – | – | – | – | – | – | – | – | – | – | IC50 (CDK1/cyclin B): > 10 µM; IC50 (CDK2/cyclin A): > 10 µM; IC50 (CDK5/p25): > 10 µM; IC50 (CK1δ/ε): > 10 µM; IC50 (DYRK1A): > 10 µM; IC50 (DYRK1B): > 10 µM; IC50 (DYRK2): > 10 µM; IC50 (DYRK3): > 10 µM; IC50 (GSK-3): > 10 µM; IC50 (CDK9/cyclin T): > 10 µM; IC50 (CLK1): 7.2 µM; IC50 (CLK2): > 10 µM; IC50 (CLK3): > 10 µM; IC50 (CLK4): 3200 nM |
| CCc1[nH]c2c3c(ccc2c1C)CNC3=O [S18a] | – | 94±13 | 99±8 | 100±9 | 50±6 | 54±1 | 46±8 | 42±12 | 65±9 | 97±3 | 93±5 | 20±2 | 31±4 | 92±12 | 7±2 | – |
| Cc1[nH]c2c3c(ccc2c1C)CNC3=O [S18b] | – | 93±26 | 103±2 | 111±18 | 75±3 | 82±5 | 77±11 | 61±4 | 89±8 | 135±18 | 104±7 | 92±8 | 63±17 | 104±14 | 48±6 | – |
| Cc1c(-c2ccccc2)[nH]c2c3c(ccc12)CNC3=O [S18c] | – | 77±26 | 109±8 | 105±11 | 57±5 | 58±7 | 50±7 | 57±25 | 91±17 | 112±2 | 89±6 | 29±4 | 30±1 | 93±9 | 10±0 | – |
| CCc1c(-c2ccccc2)[nH]c2c3c(ccc12)CNC3=O [S18d] | – | 109±30 | 104±2 | 112±11 | 86±3 | 74±14 | 65±8 | 50±6 | 87±5 | 111±7 | 100±10 | 66±3 | 66±5 | 110±16 | 38±3 | – |
| Cc1ccc(-c2[nH]c3c4c(ccc3c2C)CNC4=O)cc1 [S18e] | – | 100±20 | 102±9 | 114±11 | 84±7 | 99±16 | 85±7 | 75±11 | 92±9 | 120±31 | 101±3 | 105±12 | 77±6 | 105±10 | 64±9 | – |
| Cc1[nH]c2c3c(ccc2c1C)C(=O)NC3=O [S19] | – | 81±27 | 108±8 | 94±4 | 65±5 | 41±8 | 39±5 | 20±5 | 57±3 | 51±5 | 90±5 | 52±10 | 33±7 | 91±11 | 21±1 | – |
| O=C1NCc2ccc3c(-c4ccccc4)c(Br)[nH]c3c21 [compound 16, 2-Bromo-3-phenyl-6,7-dihydropyrrolo[3,4-g]indol-8(1H)-one] | – | – | – | – | – | – | – | – | – | – | – | – | – | – | – | IC50 (CDK1/cyclin B): > 10 µM; IC50 (CDK2/cyclin A): > 10 µM; IC50 (CDK5/p25): > 10 µM; IC50 (CK1δ/ε): > 10 µM; IC50 (DYRK1A): 1.9 µM; IC50 (DYRK1B): 1.3 µM; IC50 (DYRK2): 1.8 µM; IC50 (DYRK3): 3.9 µM; IC50 (GSK-3): > 10 µM; IC50 (CDK9/cyclin T): > 10 µM; IC50 (CLK1): 0.11 µM; IC50 (CLK2): 0.11 µM; IC50 (CLK3): 2.8 µM; IC50 (CLK4): 29 nM |
